Results as given in patent publication US8247211B2, “Glycopeptide antibiotics” (American Cyanamid Company, priority 2001, dated 2012).

Columns and labels:
Assay in all cases: In vitro antibacterial evaluation: minimum inhibitory concentration (MIC), broth dilution method
Assay type in all cases: cell-based
Enterococcus sp. = conditions: broth dilution, 5×10^5 CFU/mL, 18 hours at 35° C.
Protocol: (§1) The minimum inhibitory concentration (MIC), the lowest concentration of the antibiotic which inhibits growth of the test organism, is determined by the broth dilution method using Muller-Hinton II […] (Baltimore Biological Laboratories) following the recommendations of the National Committee for Clinical Laboratory Standards [Methods for dilution antimicrobial susceptibility tests for bacteria that grow aerobically, approved standard M7-A2, National Committee for Clinical Laboratory Standards, Villanova, Pa].
(§2) An inoculum level of 5×10^5 CFU/mL, and a range of antibiotic concentrations (64-0.06 μg/mL) is used. […] The test organisms include a spectrum of Gram-positive bacteria comprised of Staphylococcus sp., Streptococcus sp. and Enterococcus sp. These organisms include recent clinical isolates that are resistant to methicillin, penicillin and/or vancomycin.

Escherichia coli = conditions: 5×10^5 CFU/mL, 18 hours at 35° C.
Protocol: as §1, §2

Staphylococcus sp. = conditions: for MIC Coagulase Negative Staphylococcus (GC 4537): strain GC 4537; for MIC Coagulase Negative Staphylococcus (GC 4538): strain GC 4538; for MIC Coagulase Negative Staphylococcus (GC 4547): strain GC 4547
Protocol: as §1, §2

[1] = broth dilution, 18 hours at 35° C.

CC(c1ccccc1)C1NC(=O)CNC(=O)C(CO)NC(=O)C(C(O)C2CNC(=N)N2C2OC(CO)C(O)C(O)C2O)NC(=O)C(C(O)C2CNC(=N)N2)NC(=O)C(Cc2ccc(OC3OC(CO)C(OC4OC(COC(=O)CCC5CCCC5)C(O)C(O)C4O)C(O)C3O)cc2)NC1=O (stereo not drawn) [Example 100c, Cyclo[glycyl-β-methylphenylalanyl-O-[4-O-[6-O-(3-cyclopentylpropanoyl)hexopyranosyl]-hexopyranosyl]tyrosyl-3-(2-iminoimidazolidin-4-yl)seryl-3-(3-hexopyranosyl-2-iminoimidazolidin-4-yl)serylseryl]]
2 µg/mL: MIC Enterococcus faecalis (GC 2242) (Enterococcus sp.)
0.5 µg/mL: MIC Escherichia coli (GC 4560) (Escherichia coli)
1 µg/mL: MIC Staphylococcus aureus (ATCC 29213) (Staphylococcus sp.; strain ATCC 29213) | MIC Staphylococcus aureus (GC 1131) (Staphylococcus sp.; strain GC 1131) | MIC Staphylococcus aureus (GC 4535) (Staphylococcus sp.; strain GC 4535) | MIC Staphylococcus aureus-SMITH (GC 4536) (Staphylococcus sp.; strain GC 4536) | MIC Coagulase Negative Staphylococcus (GC 4537) (Staphylococcus sp.) | MIC Coagulase Negative Staphylococcus (GC 4537) (Staphylococcus sp.; [1]) | MIC Coagulase Negative Staphylococcus (GC 4538) (Staphylococcus sp.) | MIC Coagulase Negative Staphylococcus (GC 4538) (Staphylococcus sp.; [1]) | MIC Coagulase Negative Staphylococcus (GC 4547) (Staphylococcus sp.) | MIC Coagulase Negative Staphylococcus (GC 4547) (Staphylococcus sp.; [1]) | MIC Staphylococcus aureus-SMITH (GC 4536) (Staphylococcus sp.; strain SMITH GC 4536, broth dilution, 18 hours at 35° C.)
32 µg/mL: MIC Escherichia coli (GC 4559) (Escherichia coli)
4 µg/mL: MIC Enterococccus faecalis (ATCC 29212) (Enterococcus sp.) | MIC Enterococccus faecalis (GC 4552) (Enterococcus sp.)
